{
  "source": "patent US12667568B2",
  "about": "“Compositions and methods for the treatment and diagnosis of cancer” (The General Hospital Corporation, priority 2020, dated 2026)",
  "key": {"[1]": {"test_system": "HST578, MBAMD231, HCC1937, HCC1954 cancer cells", "test": "Cell survival assay, TRDMT1i alone (Example 19)", "type": "cell-based", "details": "HCC1954, HRD, high SYCP2", "protocol": "FIGS. 14A-14C show TRDMT1i alone reduce cancer cell survival in a dose-dependent manner. (FIG. 14A) Survival rate of HR proficient (HR+) HST578 cancer cells with and without siBRCA1 and/or TRDMT1i YW-1842 at indicated dose. The survival rate of these cells was analyzed (n=3, Mean±SD). (FIG. 14B) Survival rate of MBAMD231 (HR+) and HCC1937 (HRD) cells. The survival rate of these cells was analyzed (n=3, Mean±SD). (FIG. 14C) Cell survival rate in different cancer cell lines via colony-forming assay with the treatment of Imatinib at indicated dose (n=3, mean+/−S.D.). Cell lines are listed in order with the expression level from SYCP2high to SYCP2low.\nCells were seeded in each 6-cm dish and cultured as described above. They were treated with drugs with indicated dose in medium after seeding. After 7-10 days, colonies were fixed and stained with 0.3% crystal violet in methanol, and the number of colonies was counted manually."}, "[2]": {"test_system": "MD-MBA-231 xenograft tumors", "test": "MD-MBA-231 xenograft with PARPi", "type": "in vivo, BALB/c nude mice", "protocol": "FIGS. 9A-9G show SYCP2 is required for efficient homologous recombination. (FIG. 9A) Cell survival rate of HeLa and MDAMB231 via colony forming assay with the treatment of […], 4 μm, 6 μM, 8 μM, 16 μM of Olaparib (n=3, mean+/−S.D.). Western blot of SYCP2 overexpression in HeLa and MDA-MB-231 is shown in the left. (FIG. 9B) Cell survival rate of HeLa via colony forming assay with the treatment of 1 μM, 2 μm, 3 μM of Olaparib (n=3, mean+/−S.D.). Western blot of SYCP2 knockdown in Hela is shown in the left. (FIG. 9C) Scheme of Xenograft design using intraperitoneal injection of MBA-MD-231 into successful developed mouse model with virus-associated SYCP2 knockdown and control groups is shown in the left. PARPi was injected every 2 days after day 7. The graph is shown the recorded tumor size of each tested group with PARPi treatment or saline at each treatment day. (FIG. 9D). Numbers of SYCP2 IR induced foci (IRIF) colocalizing with γH2AX in MDAMB231 and HeLa cells. Cells were fixed and counted for foci numbers after 2 Gy IR followed up indicated recovery time (t=0 hr, 12 hr, 24 hr, and 48 hr) (n=30, mean+/−S.D). (FIG. 9E). […] Fold increase of mean intensity at sites of irradiation compared to mean intensity of nucleus expression is quantified (n=5, mean+/−SD). […] Numbers of RAD51 IRIF in siCtrl and siSYCP2 treated MDAMB231 and U2OS cells after 2 Gy IR and 1 hour recovery were counted (n=20, +/SD). […]"}, "[3]": {"test_system": "ZR-75-30, MCF7, HCC-1954, HCC-1937, MDA-MB-468 and MDA-MB-231", "test": "Colony formation assay with Olaparib in six breast cancer cell lines", "type": "cell-based", "protocol": "FIGS. 10A-10E show SYCP2 promotes RAD51 localization to DSBs independently of BRCA1. (FIG. 10A) The schematic mechanism of HR in the absence of BRCA1/2 for RAD51 loading with the help of SYCP2. RAD51 IRIF in BRCA1 mutant breast cancer cell lines after 2 Gy IR and 1 hour recovery with or without siSYCP2. Numbers of RAD51 foci per cell in siCtrl and siSYCP2 were quantified (n=20). The frameshift mutation of BRCA1 in cell line HCC1954 and HCC1937 is listed in the right. (FIG. 10B) The frequency of BRCA1 and SYCP2 IRIF colocalizing with γ-H2AX in U2OS cells after 2 Gy IR and recovery of 1 hour. Western blot of BRCA1 and SYCP2 knockdown and RAD51 expression level was shown in the left. (FIG. 10C) Comparison of SYCP2 RNA expression (CCLE database) in BRCA1/2 mutant and wildtype breast cancer cell lines. The analysis is normalized to Fragments Per Kilobase Million (FPKM). (FIG. 10D) Plot of correlation between SYCP2 expression and IC50 of Olaparib in groups of BRCA WT vs. mutant cells (left), high BRCA1 vs. low BRCA1 (right). p values and r values were determined by using Pearson correlated analysis. […]\nApproximately 400 cells were replanted on 6-cm dishes 48 h after siRNA transfection. […] Colonies were stained with 0.3% crystal violet/methanol and counted 9 days after treatments. Each experiment was performed at least 3 times and the standard errors were calculated and indicated in the graphs. […]"}, "[4]": {"test_system": "SKOV3 subcutaneous xenograft tumors", "test": "SKOV3 xenograft with Cisplatin", "type": "in vivo, BALB/c nude mice", "details": "Cisplatin 5 mg/kg into tumor twice per week for 3 weeks, Lv-shTRDMT1 versus Lv-NC", "protocol": "FIGS. 5A-5E show reduced TRDMT1 expression renders Cisplatin sensitization in vivo. (FIG. 5A) Lv-shTRDMT1 or Lv-NC transfected SKOV3 cells were subcutaneously injected into BALB/c nude mice, a week after injection, Cisplatin (5 mg/kg) or saline was injected into the center of the xenograft tumors twice per week for 3 consecutive weeks. (FIG. 5B) Representative images of tumors in xenografts transfected with LV-shTRDMT1/LV-NC with saline or Cisplatin treatment. (FIG. 5C) Tumor size of SKOV3 subcutaneous xenograft tumors (n=6, Mean±SD). (FIG. 5D) WB for TRDMT1 in tumor tissues collected from mice in each group (Tissues from six tumors in the same group were mixed into one sample). (FIG. 5E) IHC of TRDMT1 and KI-67 expression in ovarian cancer tissues of patients who were platinum-sensitive (PFS>6) and —resistant (PFS<6) Staining was assessed and scored on a scale of 0 (<5% staining) to 4 (>75% staining) in G. Quantification of IHC staining (n=38, PFS>6, n=24; PFS<6, n=14) was shown. […]\nWhen mice developed palpable tumors (about a week after injection), cDDP (5 mg/kg) or saline were then injected into the center of the xenograft tumors twice per week for 3 consecutive weeks. […] PFS was calculated from the time of surgery to the time of progression or recurrence. […]"}, "breast tumors": {"test_system": "breast tumors", "test": "Sacituzumab Govitecan (IMMU-132) clinical trial, outcome by SYCP2 IHC", "type": "in vivo", "details": "16 patients", "description": "FIGS. 13A-13D show high SYCP2 expression associates with poor prognosis and drug resistance in patients. (FIG. 13A). Summarization of subtypes of breast cancer patients in a Sacituzumab Govitecan (IMMU-132) clinical trial group. Patients were divided to high SYCP2 group and low SYCP2 group by IHC of SYCP2. IHC staining of SYCP2 expression in patient tumor tissues from the IMMU-132 clinical trial group. Representative images were shown. Cutoff value is median. Numbers of patients' response as Partial Response (PR) or Stable Disease (SD) in low SYCP2 group and high SYCP2 group in IMMU clinical trial are shown. (FIG. 13B) Kaplan-Meier curves of patients' overall survival and progression free survival in FIG. 13A. (FIG. 13C) Overall survival curves of 1095 patients from TCGA. Cutoff value is median. R value and p value were calculated by COX survival analysis. […]\nThe collected tumor specimens and adjacent normal tissue samples were fixed in 4% parafoiinaldehyde, stored in PBS. After sucrose infiltration, samples were filled with OTC and ready for cryosection. […] After deparaffinization and rehydration, sections were blocked and incubated with antibody against SYCP2 (PAS-67554, 1:20), Ki-67 (sc-23900, Santa Cruz, 1:200), and then detected using the Dako Envision two-step method of immunohistochemistry (Carpinteria, CA, USA). […] All IHC staining was scored independently by 2 pathologists. […]"}},
  "data": [
    {"compound": "O=C(c1cc(Cc2n[nH]c(=O)c3ccccc23)ccc1F)N1CCN(C(=O)C2CC2)CC1", "note": "[Olaparib]", "values": [
      {"measurement": "response of HCC1954 to PARPi", "setting": "[1]", "value": "relatively resistant"},
      {"measurement": "tumor growth, control tumors", "setting": "[2]; siControl tumors, intraperitoneal, every 2 days after day 7, 23 days", "value": "reduced the growth of control tumors"},
      {"measurement": "tumor growth, SYCP2 knockout tumors", "setting": "[2]; siSYCP2 tumors versus control tumors", "value": "reduced the growth of SYCP2 knockout tumors more than control tumors"},
      {"measurement": "PARPi sensitivity, BRCA1 mutant versus non-mutant", "setting": "[3]; among four cell lines expressing high levels of SYCP2", "value": "more sensitive"},
      {"measurement": "PARPi sensitivity, low versus high SYCP2", "setting": "[3]; among four cell lines without BRCA mutations", "value": "much more sensitive"}
    ]},
    {"compound": "N.N.[Cl][Pt][Cl]", "note": "[cisplatin]", "values": [
      {"measurement": "xenograft tumor size, Lv-shTRDMT1 tumors", "setting": "[4]", "value": "grew statistically smaller"}
    ]},
    {"compound": "Sacituzumab Govitecan", "values": [
      {"measurement": "response rate in patients with SYCP2high tumors", "setting": "breast tumors; SYCP2high versus SYCP2low by IHC", "value": "reduced rate of partial response (PR) but an increased rate of stable disease (SD)"},
      {"measurement": "survival in patients with high SYCP2 expression", "setting": "breast tumors; high SYCP2 expression", "value": "shorter overall survival and progression-free survival"}
    ]}
  ]
}
